From patent US6620848B2, “Nitric oxide synthase inhibitors” (SmithKline Beecham Corporation, priority 1997, dated 2003)

How the values were obtained:
eNOS = target: T1, eNOS (Rattus norvegicus, UniProt Q62600); assay: Inhibition of eNOS in situ in rat aortic rings (basal tone, intact endothelium); assay type: cell-based; conditions: rat aortic rings with intact endothelium, threshold phenylephrine
T1 construct: from tissue; host or cells: rat thoracic aorta rings with intact endothelium
Description: (§1) 1. Inhibition of eNOS and iNOS in Rat Aortic Rings
(§2) The inhibition of eNOS and iNOS in situ in rat aortic rings was assessed by measuring the increases in ring tension caused by NO synthase inhibition. For studies of basal tone (reflecting eNOS), rings of thoracic aorta with intact endothelium were prepared as described previously (Rees et al. (1989) Br. J. Pharmol. 96, 418-424) and cumulative concentration curves obtained for the inhibitors in the presence of a threshold concentration of phenylephrine (ED10≈10 nM). For studies of induced smooth muscle tone (reflecting iNOS), endothelium-denuded rings were exposed to LPS (0.1 μ/ml from S. typhosa) in the presence of phenylephrine at approximately ED90 for 6 h as described previously (Rees et al. (1990) Biochem. Biophys. Res. Commun. 173, 541-547). During this time a progressive loss of tone occurred because of iNOS induction. Cumulative concentration curves were then obtained for the inhibitors.

iNOS = target: T2, iNOS (Rattus norvegicus, UniProt Q06518); assay: Inhibition of iNOS in situ in rat aortic rings (induced smooth muscle tone, LPS-exposed endothelium-denuded rings); assay type: cell-based; conditions: for IC50: endothelium-denuded, LPS 6 h, phenylephrine approx. ED90
T2 construct: endothelium-denuded rings were exposed to LPS; from tissue; host or cells: rat thoracic aorta rings, endothelium-denuded, LPS-exposed
Description: as §1, §2

eNOS % inhib @ 300 μM (eNOS)	selectivity iNOS vs eNOS (iNOS)	IC50 (iNOS)	Structure (SMILES)
53%	>500 fold	0.45 µM	CC(=N)NCCSCCC(N)C(=O)O (racemic) [Example 2, (R/S)-[2-(1-iminoethylamino)ethyl]-D,L-homocysteine]
20%	>150 fold	6.6 µM	CC(=N)NCCSCC[C@@H](N)C(=O)O [Example 3, (R)-[2-(1-iminoethylamino)ethyl]-D-homocysteine]
